The values below come from patent US20060234911A1, “Method of reversing epithelial mesenchymal transition” (priority 2005, published 2006).

One assay relates to MMP-9. Put plainly: MMP-9 mRNA by quantitative RT-PCR after EMT. In kind it is cell-based, mouse. The note with it: 100 pM TGF-β1 72 h, then inhibitor(s) for an additional 24 hours. The method, then: (§1) FIG. 5: Restoration of epithelial gene expression patterns by kinase inhibitors illustrates a requirement for two kinase inhibitors to restore cadherin expression. mTEC-KO cells were treated with 100 pm TGF-β1 for 72 hours to induce EMT. Single kinase inhibitors or inhibitor combinations were added, cells were grown for an additional 24 hours and harvested for preparation of RNA. Ksp-cadherin (A), SM22 (B), and MMP-9 (C) mRNA levels were measured by quanitative RT-PCR. Significant differences between the untreated (No TGF-β1) cells versus cells treated with TGF-β1 or with TGF-β1 followed by inhibitor are indicated with an asterisk (*) (P<0.05, n=9). Significant differences between single inhibitors versus combination inhibitors are indicated by a letter (a,b,c) over the bar showing the combination. Each letter refers to the single inhibitor in the graph (indicated by the letter below the name of the inhibitor).
(§2) In a six well plate, 50,000 cells were seeded and appropriately treated. Total RNA was isolated using RNAeasy Miniprep kit (Qiagen) and quantified by UV spectrophotometer. 1.5 μg of RNA was converted by reverse transcriptase into cDNA using the OmniScript kit (Qiagen). Primers used for Q-PCR were: KSP-Cadherin forward-5′ CTG CAC ACA GM GTC CCT GA 3′, reverse 5′ CCTTGTCGCCACTAGAAAGC 3′; MMP-9-SuperArray (Frederick, Md.) PPM03661A; SM22 forward 5′GCA GTC CM MT TGA GM GA 3′, reverse 5′ CTGTTGCTGCCCATTTGAAG 3′; PAI-1 forward 5′TTCAGCCCTTGCTTGCCTC 3′, reverse 5′[…] 3′. cDNA was amplified in an Opticon 2 PCR machine (MJ Research) and labeled by the DyNAmo SYBR Green qPCR Kit. The amplification was carried out in the following manner: initial denaturation for 10 min at 95° C., denaturation for 10 sec at 95° C., annealing for 30 sec at the appropriate temperature, and extension for 30 sec at 72° C. Standards were created from Pfu (Stratagene) amplified PCR products purified by gel purification. Glyceraldehyde-3-phosphate dehydrogenase (GAPDH) was used as an internal control to normalize gene expression. […]

The test system of a further assay is PAI-1. As to the kind of experiment: PAI-1 mRNA expression by quantitative RT-PCR in TGFβ-induced mesenchymal cells. The following applies: 100 pM TGF-β1 72 hours, then 5 uM inhibitor for 24 hours. In kind it is cell-based, mouse. The method, then: TGFβ1 ligand (100 pM) was added to mTEC-KOs for 72 hours, followed by the addition of 5 μM SB431542 plus 100 pM TGFβ1 for an additional time 24 hours. Cell lysates were used to prepare RNA which was examined by quantitative RT-PCR for PAI-1. Significant differences in PAI-1 expression level between cells treated with TGF-β1 alone versus cells treated with TGF-β1 and then with inhibitor for the indicated times are indicated with an asterisk (*) (P<0.05, n=9).
as §2, with “C.” for “C. Standards were created from Pfu (Stratagene) amplified PCR products purified by gel purification. Glyceraldehyde-3-phosphate dehydrogenase (GAPDH) was used as an internal control to normalize gene expression.”

For assay [1], the system named is mTEC-KO cells. As to the kind of experiment: Blocking of TGF-β1-induced EMT (cell morphology, phalloidin staining). In kind it is cell-based, mouse. The note with it: 10 μM SB431542 together with TGF-β1 for 72 hours. As to the method: FIG. 1: TGF-β1 induces EMT in renal tubular epithelial cells. mTEC-KOs were incubated for 72 hours without TGF-β1 (A,D), with 100 pM TGF-β1 (B, E) or with TGF-β1 and 10 μM SB431542. Cell morphology was observed by brightfield phase microscopy at 100× magnification (A-C). […] White arrows point to stress fibers.
TGF-β knockout Murine Renal Epithelial Tubular Cells (mTEC-KO) were maintained in Renal Epithelial Cell Growth Medium (Cambrex, Md.) containing 0.25% Fetal Bovine serum (FBS), supplemented with a Bullet Kit that contained: epidermal growth factor, insulin, hydrocortisone, GA-1000, epinephrine, T3, transferrin (Cambrex), as well as penicillin and streptomycin (Gibco) in a 37° humidified 5% CO2 incubator.
Cells were seeded on glass cover slips (Fisher) and cultured as described above. Cells were treated, fixed in 4% paraformaldehyde, and permeabilized in PBS containing 0.1% Triton X-100 for 10 min. Nonspecific sites were blocked with 10% BSA or normal goat serum for 30 min. F-actin was stained at a 1:1000 dilution in 2% BSA of Texas Red-conjugated phalloidin (Sigma) and incubated for 30 min. E-cadherin (BD Biosciences) was diluted at 1:200 in 2% normal goat serum and a secondary antibody (Molecular Probes) at a 1:500 dilution was used for detection. All washes were done in 1× PBS. […]

Assay [2] relates to mTEC-KO cells. Put plainly: Reversal of mesenchymal actin cytoskeleton, F-actin phalloidin staining. Type of assay: cell-based, mouse. The note with it: 100 pM TGF-β1 72 h, then inhibitor 24 h; 5 μM SB431542, 1 μM SB203580, 1 μM Y27632, 10 μM U0126, 15 μM SP600125. As to the method:
Renal tubular epithelial cells (mTEC-KOs) were treated with 100 pm TGF-β1 for 72 hours and then kinase inhibitors were added for an additional 24 hours. The F-actin in the cells was visualized by staining with phalloidin. mTEC-KO cells were treated with a single kinase inhibitor (A-E) or with SB431542 plus a second kinase inhibitor (F-I). Single kinase inhibitors and concentrations were: 5 μM SB431542 (A), 1 μM SB203580 (B), 1 μM Y27632 (C), 10 μM U0126 (D), or 15 μM SP600125 (E). Combination kinase inhibitors included 5 μM SB431542 with 1 μM SB203580 (F), 1 μM Y27632 (G), 10 μM U0126 (H) or 15 μM SP600125 (I). […] White arrows point to stress fibers.
(§3) Cells were seeded on glass cover slips (Fisher) and cultured as described above. Cells were treated, fixed in 4% paraformaldehyde, and permeabilized in PBS containing 0.1% Triton X-100 for 10 min. Nonspecific sites were blocked with 10% BSA or normal goat serum for 30 min. F-actin was stained at a 1:1000 dilution in 2% BSA of Texas Red-conjugated phalloidin (Sigma) and incubated for 30 min. E-cadherin (BD Biosciences) was diluted at 1:200 in 2% normal goat serum and a secondary antibody (Molecular Probes) at a 1:500 dilution was used for detection. All washes were done in 1× PBS.
To examine the reversibility of the EMT induced by TGF-β1 in mTEC-KO cells, we added inhibitors of kinases previously implicated in EMT. Cells were treated with 100 pM TGF-β1 for 72 hours to induce EMT and kinase inhibitors were added for an additional 24 hours. […] To assess the effects of the kinase inhibitors on EMT, the actin cytoskeleton was examined by phalloidin staining.
Since EMT effects are mediated by multiple cellular pathways and none of the single kinase inhibitors reverted the EMT phenotype, we applied combinations of two inhibitors. […] Cortical actin bordering the cell-cell junctions was restored by both combinations. The addition of either the MEK1 inhibitor or the JNK inhibitor to the […] inhibitor had no detectable effect on the mesenchymal phenotype of the cells (FIGS. 4H and I).

For a further assay, the system named is SM22. As to the kind of experiment: SM22 mRNA by quantitative RT-PCR after EMT. In kind it is cell-based, mouse. The following applies: 100 pM TGF-β1 72 h, then inhibitor(s) for an additional 24 hours. As to the method:
as §1, §2

The next assay concerns Ksp-cadherin. Put plainly: Ksp-cadherin mRNA by quantitative RT-PCR after EMT. In kind it is cell-based, mouse. The following applies: 100 pM TGF-β1 72 h, then inhibitor(s) for an additional 24 hours.
In another assay the test system is E-cadherin. As to the kind of experiment: E-cadherin immunofluorescence at cell junctions after EMT. Type of assay: cell-based, mouse. The following applies: 100 pM TGF-β1 72 h, then inhibitors for an additional 36 hours; 5 μM SB431542, 5 μM SB203580, 5 μM Y27632, 15 μM SP600125. As to the method: FIG. 6: E-cadherin is restored by combining TβRI kinase inhibitor with either the ROCK inhibitor or the p38 MAPK inhibitor. E-cadherin is found between mTEC-KO cells (A). mTEC-KO cells were treated with 100 pM TGF-β1 for 72 hours to induce mesenchymal state in which E-cadherin is lost (B). Single inhibitors or combinations of two inhibitors were added for an additional 36 hours. […] E-cadherin reformed between cells that used combination kinase inhibitors which included 5 μM SB431542 with 5 μM SB203580 (G), 5 μM Y27632 (H), but not 15 μM SP600125 (I). Cell lysates from mTEC-KOs were analyzed by western blot using antibodies to E-cadherin and β-tubulin (J). Control epithelial cells were grown without TGF-β (Lane 3). The cells were then treated for an additional 48 hours with no inhibitor (Lane 2), single inhibitors (5 μM Y27632, Lane 6; 5 μM SB203580, Lane 7; 5 μM SB431542, Lane 8) or with the combination of 5 μM SB431542 with either 15 μM SP600125 (Lane 1), 5 μM Y27632 (Lane 4) or 5 μM SB203580 (Lane 5).
as §3
An important criterion for epithelium restoration is re-expression of the cell-cell junction adhesion protein E-cadherin. mTEC-KO cells were treated with 100pm TGF-β1 for 72 hours to induce EMT and then kinase inhibitors were added for an additional 24-48 hours (FIG. 6).

The conditions of assay [3]: cited from earlier work.
The test system of assay [4] is mouse distal tubular epithelial cells. The following applies: 100 ng/ml BMP7 for 48 hours; cited from earlier work.
For assay [5] the following is noted: 300 ug/kg human BMP7 every other day beginning at week three; cited from earlier work.

Protocol for Ksp-cadherin: In a six well plate, 50,000 cells were seeded and appropriately treated. Total RNA was isolated using RNAeasy Miniprep kit (Qiagen) and quantified by UV spectrophotometer. 1.5 μg of RNA was converted by reverse transcriptase into cDNA using the OmniScript kit (Qiagen). […] 3′. cDNA was amplified in an Opticon 2 PCR machine (MJ Research) and labeled by the DyNAmo SYBR Green qPCR Kit. The amplification was carried out in the following manner: initial denaturation for 10 min at 95° C., denaturation for 10 sec at 95° C., annealing for 30 sec at the appropriate temperature, and extension for 30 sec at 72° C. Standards were created from Pfu (Stratagene) amplified PCR products purified by gel purification. Glyceraldehyde-3-phosphate dehydrogenase (GAPDH) was used as an internal control to normalize gene expression.
The effects of individual or combinations of kinase inhibitors on the expression of several genes altered by EMT were measured by quantitative RT-PCR.

Take `NC(=O)c1ccc(-c2nc(-c3ccc4c(c3)OCO4)c(-c3ccccn3)[nH]2)cc1` [SB431542]: in the assay with MMP-9, the “MMP-9 mRNA level” value is “efficiently reduced SM22 and MMP-9 expression to pre-EMT levels”. Besides, the “PAI-1 mRNA level” value in the assay on PAI-1 is on record as “sufficient to reduce the mRNA level”. In the assay with mTEC-KO cells [1], the “TGF-β1-induced transition of epithelial cells into mesenchymal cells” value is on record as “blocked the TGF-β1-induced transition of the mTEC-KO epithelial cells into mesenchymal cells” and the “actin stress fibers (phalloidin) when inhibitor is given with TGF-β1” value is given as “very few actin stress fibers were observed”. Besides, the “reversal of mesenchymal actin stress fiber morphology, single kinase inhibitor” value with mTEC-KO cells [2] is “did not reverse the mesenchymal actin stress fiber morphology”. The “SM22 mRNA level” value with SM22 was “efficiently reduced SM22 and MMP-9 expression to pre-EMT levels”. Besides, the “Ksp-cadherin mRNA level” value in the assay on Ksp-cadherin is “increased Ksp-cadherin to intermediate levels”. For the same molecule, the “E-cadherin at cell junctions (localization)” value in the assay on E-cadherin is listed as “caused an increase in reforming E-cadherin at cell junctions”.
For the molecule `N#CC(=C(/N)Sc1ccccc1N)/C(C#N)=C(\N)Sc1ccccc1N` [U0126], in the assay on mTEC-KO cells [2], the “reversal of mesenchymal actin stress fiber morphology, single kinase inhibitor” value is “fail to reverse the mesenchymal actin cytoskeleton”.
HGF: hepatocyte growth factor: the “reversal of EMT in vivo” value in [3] is “only provided a partial reversal of EMT”.
As for `C[C@@H](N)[C@H]1CC[C@H](C(=O)Nc2ccncc2)CC1` [Y27632], the “MMP-9 mRNA level” value in the assay with MMP-9 is recorded as “increased the level of MMP9 expression”. Also, in the assay with mTEC-KO cells [2], the “reversal of mesenchymal actin stress fiber morphology, single kinase inhibitor” value is reported as “fail to reverse the mesenchymal actin cytoskeleton”. In the assay with SM22, the “SM22 mRNA level” value was “partially reduced SM22 levels”. Also, the “Ksp-cadherin mRNA level” value in the assay with Ksp-cadherin is “increased Ksp-cadherin to intermediate levels”. Further, in the assay on E-cadherin, the “E-cadherin at cell junctions (localization)” value is “caused an increase in reforming E-cadherin at cell junctions”.
The like results for `C[S+]([O-])c1ccc(-c2nc(-c3ccncc3)c(-c3ccc(F)cc3)[nH]2)cc1` (stereo not shown) [SB203580] were, in that order, “did not reduce SM22 or MMP9 transcript levels”, “fail to reverse the mesenchymal actin cytoskeleton”, “did not reduce SM22 or MMP9 transcript levels”, “led to a further decrease in Ksp-cadherin expression” and “caused an increase in reforming E-cadherin at cell junctions”.

B1: BMP7: TGFβ superfamily member that acts through distinct receptors and Smad proteins (protein, UniProt P18075 293-431, looked up)
Bone morphogenetic protein 7: STGSKQRSQNRSKTPKNQEALRMANVAENSSSDQRQACKKHELYVSFRDLGWQDWIIAPEGYAAYYCEGECAFPLNSYMNATNHAIVQTLVHFINPETVPKPCCAPTQLNAISVLYFDDSSNVILKKYRNMVVRACGCH
For the molecule B1, the “reversal of TGF-β1 induced EMT (E-cadherin expression, epithelial morphology)” value in [4] is reported as “reversed”. Further, in assay [5], the “renal pathology (mortality, renal function)” value was “reversed the renal pathology as indicated by a decline in mortality, and improvement in renal function”.
